Key:
[1] = target: T1, FBD35 (PfFKBP35 binding domain) (Plasmodium falciparum, UniProt Q8I4V8); experiment: Differential scanning calorimetry, FBD35; settings: read-out: FBD35 ΔTM
T1 construct: FKBP35 Q5 -A128; 6His-SUMO (N, cleaved yes); made in house; host or cells: E. coli BL21 DE3

FKBP12 [2] = target: T2, FKBP12 (Homo sapiens, UniProt P62942); experiment: Differential scanning calorimetry, FKBP12; type: binding; settings: compound 40 µM
T2 construct: 6His-SUMO (N, cleaved yes); made in house; host or cells: E. coli (identical protocol to FBD35, BL21 DE3)

[3] = target: T3, nLuc-tagged full length PfFKBP35 (Plasmodium falciparum, UniProt Q8I4V8); experiment: NanoBRET cellular target engagement, nLuc-FKBP35; type: cell-based
T3 construct: nanoluciferase-tagged (nLuc) full length PfFKBP35 or nLuc-tagged FKBP12; expressed in transfected cells

FKBP12 [4] = target: T2, FKBP12; experiment: Fluorescence polarization competition, FKBP12; type: binding
[5] = system: NF54 P. falciparum parasites; experiment: P. falciparum strain NF54 growth-inhibition assay; type: cell-based; settings: Plasmodium falciparum; luciferase reporter NF54 line, 72 h
Protocol: Figure 6 P. falciparum strain NF54 growth-inhibition assay. […] Proliferation was measured by luminescence after a complete life-cycle and normalized to DMSO (100%) and chloroquine (100 nM, 0%). (B) Structural differences between synthetic ligands and compound IC50s (μM).
Substrate and Extracellular NanoLuc® Inhibitor (Promega, cat. N2160) were diluted at 1:166 and 1:500, respectively, in Opti -MEM I Reduced Serum Media. 25 µL of this solution was added to each well and plate was read immediately using an EnVision Multimode Plate Reader (PerkinElmer). The BRET ratio was calculated using the following formula:
BRET ratio = acceptorsample – acceptorno tracer control donorsample donorno tracer control
NanoBRET Target Engagement Assay (384-well)
HEK293T cells stably expressing either nLuc-FKBP12 or nLuc-FKBP35 were plated at 0.2×10^6 cells/mL in white, clear -bottom 384-well plates (Sigma Aldrich) in Opti -MEM I Reduced Serum Media (ThermoFisher Scientific) using a Mutidrop Combi Reagent Dispenser (ThermoFisher Scientific). Cells were incubated overnight at 37 °C, 5% CO 2. Using a Tecan D300e, the Rap-Gly-BDP tracer was added to cells to 1 µM. Plates were shaken at 700 RPM on an orbital plate shaker and incubated at 37 °C, 5% CO 2 for 10 minutes. Test compounds were added at the indicated concentrations using a Tecan D300e. Plates were shaken at 700 RPM on an orbital plate shaker and incubated at 37 °C, 5% CO 2 for 2 hours. NanoBRET Nano -Glo Substrate and Extracellular NanoLuc® Inhibitor (Promega, cat. N2160) were diluted at 1:166 and 1:500, respectively, in Opti-MEM I Reduced Serum Media. 10 µL of this solution was added to each well and plate was read immediately using an EnVision Multimode Plate Reader (PerkinElmer). The BRET ratio was calculated using the above formula.
Parasite Culture and Inhibition
NF54 P. falciparum parasites constitutively expressing Renilla luciferase (RLuc) and Blasticidin-S deaminase under the PfHsp86 5’ and PfHRP2 3‘ regulatory sequences integrated in the cg6 chromosomal locus 4 were maintained continuous ly in media consisting of human erythrocytes at 2% haematocrit (O+) resuspended in RPMI 1640 (Gibco® 31800022) supplemented with 5% Albumax (Gibco® 11021045; complete medium) and 2.5 µg/mL of Blasticidin (RPI Corp B12150-0.1) in a gas mixture consisting of 5% CO2, 1% O2, and 94% N2 at 37 °C (Trager and Jensen 2005).
Parasitemia was determined every 48 h through microscopic examination of thin blood smears fixed in methanol, stained with 10% Giemsa solution, and sub-cultured to 0.5-1% parasitaemia.
Compound susceptibility assays
(§1) In 96-well round-bottom plates, sorbitol -synchronized cultures of ring-stage NF54 P. falciparum parasites were established in triplicate and treated with varying concentrations of the inhibitors (25-0.0038 μM) serially diluted in complete medium. Parasite proliferation rates were analyzed after 72 h using the Renilla-Glo Luciferase Assay, and luminescence was measured using the GloMax® Discover Microplate Reader. EC 50 values were obtained from corrected dose-response curves using GraphPad Prism (version 5; GraphPad Software). Data represent the mean % luminescence relative to 5% DMSO-treated (vehicle, 100% growth) and 100 nM chloroquine-treated (no growth) controls.
(§2) In black, clear-bottom 96-well plates (No. 3904 Corning Life Sciences), HEK293T cells were plated at 2x10^5 cells/mL in DMEM high glucose, pyruvate media (ThermoFisher Scientific, cat. 11995073) supplemented with 10% FBS and 1% pen -strep (100 μL final volume). Cells were incubated overnight at 37°C, 5% CO2. Using a Tecan D300e digital dispenser, cells were dosed in triplicate […]
concentration, 100 mM stock in DMSO) and Carfilzomib (10 µM to 4.6 nM final concentration, 10 mM stock in DMSO) normalizing DMSO to 0.25%. Cells were then incubated at 37 °C, 5% CO2 for 72 hours. Following incubation, cells were treated with 70 µL CellTiter-Glo® Luminescent Cell […]

[6] = Plasma stability assay, human; type: in vitro ADME; settings: percent remaining, 1 µM, 37 °C, 5 hours
Protocol: as §1, §2
(§3) concentration, 100 mM stock in DMSO) and Carfilzomib (10 µM to 4.6 nM final concentration, 10 mM stock in DMSO) normalizing DMSO to 0.25%. Cells were then incubated at 37 °C, 5% CO2 for 72 hours. Following incubation, cells were treated with 70 µL CellTiter-Glo® Luminescent Cell Viability Assay Reagent (Promega, cat. G7570) and incubated in the dark at room temperature for 30 minutes. Plates were read using an EnVision Multimode Plate Reader (PerkinElmer). Cell viability data was normalized to DMSO controls and analyzed in GraphPad Prism 8 by fitting the data to “[Inhibitor] vs. normalized response – variable slope” model to obtain the curves.
(§4) Each compound was prepared in duplicate at 1 µM final concentration (0.2% DMSO) in human or mouse plasma (Aldrich). Samples were incubated at 37 °C for 5 hours with mixing at 350 rpm on an orbital shaker. Aliquots of each sample were taken at time zero and following 5 hours. Each sample was quenched by adding acetonitrile in a 3:1 ratio and further diluting with 50 µl of PBS.
(§5) After quenching, samples were centrifuged to pellet precipitated partic ulates and an aliquot of supernatant was diluted 1:1 with water. The resulting solution was analyzed by UPLC -MS/MS with compounds detected by MRM detection on a triple quadrupole mass spectrometer. The ratio of compound peak areas at 0 and 5 hours were use d to calculate the percent remaining.

[7] = Plasma stability assay, mouse; type: in vitro ADME; settings: percent remaining, 1 µM, 37 °C, 5 hours
Protocol: as §1, §2, §3, §4, §5

nLuc-tagged FKBP12 = target: T4, nLuc-tagged FKBP12 (Homo sapiens, UniProt P62942); experiment: NanoBRET cellular target engagement, nLuc-FKBP12; type: cell-based
T4 construct: full length Plasmodium falciparum FKBP35 and human FKBP12 DNA were; expressed in transfected cells
T4 sequence (P62942 whole entry): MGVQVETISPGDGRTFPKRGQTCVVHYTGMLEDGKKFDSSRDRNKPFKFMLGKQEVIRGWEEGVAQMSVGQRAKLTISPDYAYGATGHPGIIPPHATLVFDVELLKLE

T3 sequence (Q8I4V8 whole entry): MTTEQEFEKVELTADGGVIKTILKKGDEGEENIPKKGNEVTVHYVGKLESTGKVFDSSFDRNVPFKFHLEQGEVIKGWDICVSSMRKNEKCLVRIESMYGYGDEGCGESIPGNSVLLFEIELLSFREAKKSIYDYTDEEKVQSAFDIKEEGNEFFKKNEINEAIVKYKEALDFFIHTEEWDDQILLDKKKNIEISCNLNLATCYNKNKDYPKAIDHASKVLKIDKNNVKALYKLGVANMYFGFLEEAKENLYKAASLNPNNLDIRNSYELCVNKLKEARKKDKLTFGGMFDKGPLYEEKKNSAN
T1 sequence (Q8I4V8 5-128): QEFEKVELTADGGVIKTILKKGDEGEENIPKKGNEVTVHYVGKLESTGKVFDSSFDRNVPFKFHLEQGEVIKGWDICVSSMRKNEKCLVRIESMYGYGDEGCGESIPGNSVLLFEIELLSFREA
T2 sequence (P62942 whole entry): as the sequence (P62942 whole entry) above

| SMILES | ΔTm at 40 µM [1] [°C] | ΔTm at 40 µM (FKBP12 [2]) [°C] | IC50 [3] [nM] | IC50 (FKBP12 [4]) [nM] | IC50 [5] [nM] | Plasma Stability (human) [6] [%] | Plasma Stability (mouse) [7] [%] | IC50 (nLuc-tagged FKBP12) [nM] |
| --- | --- | --- | --- | --- | --- | --- | --- | --- |
| C=CC(=O)Nc1cccc([C@@H](CCc2ccc(OC)c(OC)c2)OC(=O)[C@@H]2CCCCN2C(=O)C(=O)C(C)(C)CC)c1 [1a] | 13.4 | 5.6 | 1230 | 132 | 1400 | 92 | 48 | 481 |
| CCC(=O)Nc1cccc([C@@H](CCc2ccc(OC)c(OC)c2)OC(=O)[C@@H]2CCCCN2C(=O)C(=O)C(C)(C)CC)c1 [1b] | 2.8 | 6.8 | 876 | 58 | 1900 | 90 | 18 | 313 |
| C=CC(=O)Nc1ccccc1[C@@H](CCc1ccc(OC)c(OC)c1)OC(=O)[C@@H]1CCCCN1C(=O)C(=O)C(C)(C)CC [1c] | 9.6 | 3.2 |  | 423 | 1900 | 62 | 31 |  |
| C=CC(=O)OCC(C)(C)C(=O)C(=O)N1CCCC[C@H]1C(=O)O[C@H](CCc1ccc(OC)c(OC)c1)c1ccccc1 [2c] | 14.5 | 5.2 | 854 | 166 | 13000 | 0 | 0 | 601 |

Reference: PMC7667655, “Targeted Covalent Inhibition of Plasmodium FK506 Binding Protein 35” (ACS Medicinal Chemistry Letters, 2020)
